These results are taken from patent US20250264461A1, “NANOVESICLE COMPRISING HETERODIMERIC G-PROTEIN COUPLED RECEPTOR, METHOD FOR PREPARING NANOVESICLE, FIELD EFFECT TRANSISTOR-BASED TASTE SENSOR COMPRISING NANOVESICLE, AND METHOD FOR MANUFACTURING TASTE SENSOR” (Seoul National University R&DB Foundation, priority 2013, published 2025).

Peptide text beside a SMILES is read from it.

Assay [1] addresses T1, sweet taste substance receptor protein (hTAS1R2 and hTAS1R3) (Homo sapiens, UniProt Q7RTX0+Q8TE23).
T1 construct: HA (N); expressed in transfected cells
T1 sequence (Q8TE23 20-839): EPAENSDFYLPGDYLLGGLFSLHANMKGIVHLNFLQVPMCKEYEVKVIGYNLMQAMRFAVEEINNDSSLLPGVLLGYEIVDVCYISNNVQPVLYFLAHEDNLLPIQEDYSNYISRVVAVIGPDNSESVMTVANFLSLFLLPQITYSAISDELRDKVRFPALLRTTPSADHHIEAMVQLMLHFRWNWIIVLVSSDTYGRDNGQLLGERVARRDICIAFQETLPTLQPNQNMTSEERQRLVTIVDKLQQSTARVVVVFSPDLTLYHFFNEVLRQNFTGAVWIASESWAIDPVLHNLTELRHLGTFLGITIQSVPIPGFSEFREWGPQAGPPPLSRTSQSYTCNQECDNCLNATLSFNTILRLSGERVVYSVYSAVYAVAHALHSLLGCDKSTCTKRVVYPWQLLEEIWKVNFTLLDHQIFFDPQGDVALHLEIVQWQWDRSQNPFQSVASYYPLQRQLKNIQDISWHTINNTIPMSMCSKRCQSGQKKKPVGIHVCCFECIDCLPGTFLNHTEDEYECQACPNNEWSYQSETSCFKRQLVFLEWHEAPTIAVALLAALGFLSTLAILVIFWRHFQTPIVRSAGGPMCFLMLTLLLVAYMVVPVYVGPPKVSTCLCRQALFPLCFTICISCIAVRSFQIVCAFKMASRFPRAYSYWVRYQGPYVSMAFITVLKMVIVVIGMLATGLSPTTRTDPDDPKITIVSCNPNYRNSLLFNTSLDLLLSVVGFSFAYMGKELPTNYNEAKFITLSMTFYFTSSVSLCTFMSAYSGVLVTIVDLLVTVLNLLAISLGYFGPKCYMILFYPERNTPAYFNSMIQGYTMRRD
T1 sequence (Q7RTX0 21-852): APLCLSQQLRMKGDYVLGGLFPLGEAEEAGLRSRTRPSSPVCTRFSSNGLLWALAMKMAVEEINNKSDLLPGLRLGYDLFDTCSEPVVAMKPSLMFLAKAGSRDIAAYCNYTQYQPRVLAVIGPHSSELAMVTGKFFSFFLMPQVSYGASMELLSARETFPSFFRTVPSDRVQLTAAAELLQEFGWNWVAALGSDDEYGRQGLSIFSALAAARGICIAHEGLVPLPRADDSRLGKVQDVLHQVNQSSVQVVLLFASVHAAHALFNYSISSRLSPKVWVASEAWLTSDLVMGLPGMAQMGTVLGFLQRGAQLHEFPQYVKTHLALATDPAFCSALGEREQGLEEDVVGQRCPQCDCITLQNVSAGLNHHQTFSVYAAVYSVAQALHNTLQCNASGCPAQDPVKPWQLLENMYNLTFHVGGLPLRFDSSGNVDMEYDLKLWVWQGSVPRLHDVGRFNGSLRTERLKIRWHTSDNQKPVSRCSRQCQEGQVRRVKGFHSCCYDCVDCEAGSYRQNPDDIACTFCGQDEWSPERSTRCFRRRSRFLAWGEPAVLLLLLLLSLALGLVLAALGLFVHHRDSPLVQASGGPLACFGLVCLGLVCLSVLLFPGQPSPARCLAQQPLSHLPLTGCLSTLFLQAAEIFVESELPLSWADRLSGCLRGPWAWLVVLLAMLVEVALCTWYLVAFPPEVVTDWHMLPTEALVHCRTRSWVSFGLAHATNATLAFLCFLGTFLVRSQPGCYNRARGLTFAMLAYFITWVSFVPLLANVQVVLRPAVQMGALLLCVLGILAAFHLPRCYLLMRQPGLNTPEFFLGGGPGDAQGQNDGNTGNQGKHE
Nature of the assay: nanovesicle based field effect transistor taste sensor, real-time source-drain current / conductance. The class given is biochemical. The note with it: for signal change: 100 mM added.

The target of assay [2] is T1, sweet taste substance receptor protein (hTAS1R2 and hTAS1R3). The description is as above. The class given is biochemical. The note with it: for fit of sensor signals to the hill equation model: FIG. 4C; for signal generating from the taste sensor (sensitivity ΔG/G0): FIG. 3C. On the procedure:
A sweet taste substance (Sigma Aldrich, USA) with a 1 mM concentration was dissolved into PBS (phosphate buffered saline; Gibco, USA) containing 2 mM CaCl2 therein. The resulting solution was sequentially diluted 1/10 times to acquire a diluent. The diluent was exposed to the nanovesicle based field effect transistor manufactured in the embodiment 2. A current between the source electrode and drain electrode was measured in a real time manner to check a reaction magnitude. A sensitivity ΔG/G0 of a sweet taste substance relative to sucrose in the nanovesicle based field effect transistor was measured in a real time manner.

Assay [3] deals with T2, nanovesicle including TAS1R2 and TAS1R3 (Homo sapiens, UniProt Q7RTX0+Q8TE23).
T2 construct: HA (N); expressed in transfected cells
T2 sequence (Q8TE23 20-839): T1 sequence (Q8TE23 20-839)
T2 sequence (Q7RTX0 21-852): T1 sequence (Q7RTX0 21-852)
Nature of the assay: Ca2+ dependent fluorescence signal in nanovesicle separated from transformed HEK-293 cell line. The class given is biochemical. The note with it: 10 mM sucrose added, FIG. 2F. On the procedure: (§1) A signal transfer via a sweet taste substance of each of the nanovesicle and HEK-293 cell was checked wherein the HEK-293 cell has the expressed heterodimeric receptor including the hTAS1R2 and hTAS1R3 manufactured in the embodiment 1, and the nanovesicle is separated from the HEK-293 cell.
(§2) For this, the transformed HEK-293 cell line was incubated for three or more days. Then, 5 μm Fura 2-AM (acetoxymethyl)(calcium indicator, Invitrogen) was loaded on the cells in an imaging buffer solution (NaCl 140 mM, KCl 5 mM, MgCl2 1 mM, CaCl2 2 mM, HEPES 10 mM, Glucose 10 mM, 0.1% Pluronic F-127, pH 7.4). A non-specific esterase residing in the cell performs hydrolysis for an AM ester group to be changed into a form sensitive to Ca^2+ ions. […]
(§3) After three times cleaning using respective solutions, a ligand and ATP (100 uM) for a Ca^2+ dependent fluorescence signal was injected thereto, and, dual stimulations (340 nm, and 380 nm) were applied thereto. Thereafter, a fluorescence signal due to Ca^2+ at 510 nm was measured using a spectrofluorophotometer. The fluorescence signal was obtained at 2 seconds intervals. A final result was shown as a ratio between fluorescence strengths resulting from the dual stimulations.

Assay [4] addresses T3, heterodimeric receptor including the hTAS1R2 and hTAS1R3 (Homo sapiens, UniProt Q7RTX0+Q8TE23).
T3 construct: HA (N); expressed in transfected cells
T3 sequence (Q8TE23 20-839): T1 sequence (Q8TE23 20-839)
T3 sequence (Q7RTX0 21-852): T1 sequence (Q7RTX0 21-852)
Put plainly: Ca2+ dependent fluorescence signal in transformed HEK-293 cell line. It counts as cell-based. The note with it: 10 mM sucrose added, Fura 2-AM, ratio of 340/380 nm stimulation, emission 510 nm, FIG. 2C. On the procedure:
as §1, §2, §3

For `O=C[C@H](O)[C@@H](O)[C@H](O)[C@H](O)C(=O)O` [D-glucuronic acid], the signal change result in assay [1] (FIG. 4B) was “no signal change”.
Regarding `COC(=O)[C@H](Cc1ccccc1)NC(=O)[C@@H](N)CC(=O)O` [aspartame] (H-Asp-Phe-OMe), in assay [2], the “fit of sensor signals to the hill equation model” value (“fit of sensor signals” below) is recorded as “comply with the hill equation model”. In addition, the “sensitivity as a working substance relative to sucrose” value in assay [2] (compared with sucrose) was “more sensitive”.
On to `OC[C@H]1O[C@@H](O[C@H]2[C@H](O)[C@@H](O)[C@H](O)O[C@@H]2CO)[C@H](O)[C@@H](O)[C@@H]1O` [cellobios], for which, in assay [1] (FIG. 4B), the signal change entry is listed as “no signal change”.
In the case of `O=C(CO)[C@@H](O)[C@H](O)[C@H](O)CO` [fructose], the “fit of sensor signals” value in assay [2] is recorded as “comply with the hill equation model”.
Regarding `OC[C@H]1O[C@@](CO)(O[C@H]2O[C@H](CO)[C@@H](O)[C@H](O)[C@H]2O)[C@@H](O)[C@@H]1O` [sucrose], the “signal generating from the taste sensor (sensitivity ΔG/G0)” value in assay [2] (100 uM concentration) is “decreases”; in assay [2] (500 uM concentration), “rapidly decreases”. Further, the “fit of sensor signals” value in assay [2] is on record as “comply with the hill equation model”. The fluorescence emission strength result in assay [3] and in assay [4] was “relatively increases” in each case. The reaction magnitude decrease result in assay [1] (500 uM added, FIG. 4B) is “about 5%”. For the same compound, in assay [1] (1 mM concentration, contained in coffee and Darjeeling tea, FIG. 4D), the “detection in real samples” value is reported as “may be detected”.
